From patent publication US12246076B2, “Radiolabeled compounds for in vivo imaging of gastrin-releasing peptide receptor (GRPR) and treatment of GRPR-related disorders” (PROVINCIAL HEALTH SERVICES AUTHORITY, priority 2022, dated 2025)
Numbered stars: 1 amine (or outer) side, 2 acyl side, 3 side chain; on linkers, the order of the positions; unused ones are H or OH. Square brackets hold non-standard residues; d marks the D form. Peptide text beside a SMILES is read from it. * marks the point of attachment. DOTA = O=C(O)CN1CCN(CC(=O)O)CCN(CC(=O)*)CCN(CC(=O)O)CC1; Leuψ(CH2N)ThzNH2 = CC(C)C[C@@H](CN1CSC[C@H]1C(N)=O)N*; NMeH = CN[C@@H](Cc1c[nH]cn1)C(=O)O; X1 = O=C(CN1CCC(N[*:1])CC1)[*:2]; Tle = CC(C)(C)[C@H](N)C(=O)O; Thz = O=C(O)[C@@H]1CSCN1

Key:
GRPR = target: T1, GRPR (Homo sapiens, UniProt P30550); test: In vitro competition binding assay, displacement of [^125I-Tyr^4]bombesin on GRPR-expressing PC-3 cells; conditions: n = 2-3, read-out: Binding affinities Ki Mean
T1 construct: endogenous in cells; host or cells: PC-3 prostate cancer cells
Method: PC-3 cells were seeded at 2×10^5 cells/well in 24-well poly-D-lysine plates 24-48 hours prior to the experiment. The growth medium was replaced by 400 μL of reaction medium (RPMI 1640 containing 2 mg/mL BSA, 4.8 mg/mL HEPES, 1 U/mL penicillin G and 1 μg/mL streptomycin). Cells were incubated for 30-60 min at 37° C. […] The cells were incubated with moderate agitation for 1 h at 27° C., washed twice with ice-cold PBS, harvested by trypsinization, and measured for radioactivity on the gamma counter. Data were analyzed using nonlinear regression (one binding site model for competition assay) with GraphPad Prism 8.
In vitro competition binding assays were performed according to the procedure outlined in Example 1.

[1] = Ex vivo biodistribution in PC-3 tumor-bearing mice; conditions: male, NRG, mouse, iv, total radioactivity, 1 h post-injection, mice bearing PC-3 tumor xenografts, n = 4
Method: (§1) All imaging and biodistribution studies were performed using male NOD.Cg-Rag1^tm1MoM II2rg^tm1WI/SzJ (NRG) mice and conducted according to the guidelines established by the Canadian Council on Animal Care and approved by Animal Ethics Committee of the University of British Columbia. For tumor inoculations, mice were anesthetized by inhalation with 2% isoflurane in oxygen and implanted subcutaneously with 5×10^6 PC-3 cells below the left shoulder. Imaging and biodistribution studies were performed only after tumors grew to 5-8 mm in diameter.
(§2) For PET/CT imaging studies, ˜3-4 MBq of the ^68Ga-labeled tracer was injected through the tail vein. Mice were allowed to recover and roam freely in the cages after injecting the tracer. At 45 min post-injection (p.i.), mice were sedated again and positioned on the scanner. First, a 10 min CT scan was conducted for localization and attenuation correction for reconstruction of PET images, before a 10 min PET image was acquired. Heating pads were used during the entire procedure to keep the mice warm. For ex vivo biodistribution studies, mice were injected with ˜1.5-3 MBq of the ^68Ga-labeled tracer. At 1 h p.i., mice were euthanized, blood was drawn from heart, and organs/tissues of interest were collected, rinsed with PBS, blotted dry, weighed, and counted using an automated gamma counter. The uptake in each organ/tissue was normalized to the injected dose and expressed as the percentage of the injected dose per gram of tissue (% ID/g).
(§3) All imaging and biodistribution studies were performed using male NOD.Cg-Rag1tm1Mom II2rgtm1WjI/SzJ (NRG) mice and conducted according to the guidelines established by the Canadian Council on Animal Care and approved by Animal Ethics Committee of the University of British Columbia. For tumor inoculations, mice were anesthetized by inhalation with 2% isoflurane in oxygen and implanted subcutaneously with 5×10^6 PC-3 cells below the left shoulder. Imaging and biodistribution studies were performed only after tumors grew to 5-8 mm in diameter.
(§4) For PET/CT imaging studies, ˜5 MBq of the ^68Ga-labeled tracer was injected through the tail vein. Mice were allowed to recover and roam freely in the cages after injecting the tracer. At 45 min post-injection (p.i.), mice were sedated again and positioned on the scanner. First, a 10 min CT scan was conducted for localization and attenuation correction for reconstruction of PET images, before a 10 min PET image was acquired. Heating pads were used during the entire procedure to keep the mice warm. For ex vivo biodistribution studies, mice were injected with ˜3 MBq of the 68Ga-labeled tracer. At 1 h p.i., mice were euthanized, blood was drawn from heart, and organs/tissues of interest were collected, rinsed with PBS, blotted dry, weighed, and counted using an automated gamma counter.

in vivo = conditions: male, NRG, mouse, iv, total radioactivity
Method: as §1, §2, §3, §4

[2] = PC-3 tumor, Biodistribution PC3 tumor Mean
[3] = seminal, Biodistribution Seminal Mean
[4] = Biodistribution Large Intestine Mean
[5] = Biodistribution Small Intestine Mean

T1 sequence (P30550 whole entry): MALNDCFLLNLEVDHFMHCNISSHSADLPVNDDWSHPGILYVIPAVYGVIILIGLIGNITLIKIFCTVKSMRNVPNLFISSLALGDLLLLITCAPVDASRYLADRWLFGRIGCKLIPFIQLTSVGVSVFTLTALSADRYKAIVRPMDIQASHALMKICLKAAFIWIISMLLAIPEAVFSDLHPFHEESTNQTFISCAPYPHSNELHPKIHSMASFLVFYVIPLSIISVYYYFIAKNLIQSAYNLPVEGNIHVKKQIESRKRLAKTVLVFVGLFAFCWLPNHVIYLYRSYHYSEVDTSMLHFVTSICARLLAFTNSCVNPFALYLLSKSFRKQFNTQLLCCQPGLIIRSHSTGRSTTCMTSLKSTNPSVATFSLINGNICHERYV

Ki (GRPR) [nM]	tissue uptake at 1 h [1, 2] [%ID/g]	tissue uptake at 1 h [1, 3] [%ID/g]	tissue uptake at 1 h (in vivo; Biodistribution Adrenal Mean) [%ID/g]	tissue uptake at 1 h (in vivo; Biodistribution Blood Mean) [%ID/g]	tissue uptake at 1 h (in vivo; Biodistribution Bone Mean) [%ID/g]	tissue uptake at 1 h (in vivo; Biodistribution Brain Mean) [%ID/g]	tissue uptake at 1 h (in vivo; Biodistribution Fat Mean) [%ID/g]	tissue uptake at 1 h (in vivo; Biodistribution Heart Mean) [%ID/g]	tissue uptake at 1 h (in vivo; Biodistribution Kidneys Mean) [%ID/g]	tissue uptake at 1 h (in vivo; [4]) [%ID/g]	tissue uptake at 1 h (in vivo; Biodistribution Liver Mean) [%ID/g]	tissue uptake at 1 h (in vivo; Biodistribution Lungs Mean) [%ID/g]	tissue uptake at 1 h (in vivo; Biodistribution Muscle Mean) [%ID/g]	tissue uptake at 1 h (in vivo; [5]) [%ID/g]	tissue uptake at 1 h (in vivo; Biodistribution Spleen Mean) [%ID/g]	tissue uptake at 1 h (in vivo; Biodistribution Stomach Mean) [%ID/g]	tissue uptake at 1 h (in vivo; Biodistribution Testes Mean) [%ID/g]	SMILES	other results
25.9	–	–	–	–	–	–	–	–	–	–	–	–	–	–	–	–	–	Cc1cccc2[nH]cc(C[C@H](NC(=O)[C@H](CCC(N)=O)NC(=O)[C@H](N)Cc3ccccc3)C(=O)N[C@@H](C)C(=O)N[C@H](C(=O)NCC(=O)N[C@@H](Cc3c[nH]cn3)C(=O)N[C@@H](CC(C)C)C(=O)N3CSC[C@H]3C(N)=O)C(C)C)c12 [LW01183]	–
13.5	–	–	–	–	–	–	–	–	–	–	–	–	–	–	–	–	–	Cc1cccc2c(C[C@H](NC(=O)[C@H](CCC(N)=O)NC(=O)[C@H](N)Cc3ccccc3)C(=O)N[C@@H](C)C(=O)N[C@H](C(=O)NCC(=O)N[C@@H](Cc3c[nH]cn3)C(=O)N[C@@H](CC(C)C)C(=O)N3CSC[C@H]3C(N)=O)C(C)C)c[nH]c12 [LW02007]	–
11.5	–	–	–	–	–	–	–	–	–	–	–	–	–	–	–	–	–	Cc1[nH]c2ccccc2c1C[C@H](NC(=O)[C@H](CCC(N)=O)NC(=O)[C@H](N)Cc1ccccc1)C(=O)N[C@@H](C)C(=O)N[C@H](C(=O)NCC(=O)N[C@@H](Cc1c[nH]cn1)C(=O)N[C@@H](CC(C)C)C(=O)N1CSC[C@H]1C(N)=O)C(C)C [LW02009, D-Phe-Gln-2-Me-Trp-Ala-Val-Gly-His-Leu-Thz-NH2]	–
166	–	–	–	–	–	–	–	–	–	–	–	–	–	–	–	–	–	CC(C)C[C@H](NC(=O)[C@H](Cc1c[nH]cn1)NC(=O)CNC(=O)[C@@H](NC(=O)[C@H](C)NC(=O)[C@H](Cc1c[nH]c2ncccc12)NC(=O)[C@H](CCC(N)=O)NC(=O)[C@H](N)Cc1ccccc1)C(C)C)C(=O)N1CSC[C@H]1C(N)=O [LW02013]	–
53.1	–	–	–	–	–	–	–	–	–	–	–	–	–	–	–	–	–	CC(C)C[C@H](NC(=O)[C@H](Cc1c[nH]cn1)NC(=O)CNC(=O)[C@@H](NC(=O)[C@H](C)NC(=O)[C@H](Cc1csc2ccccc12)NC(=O)[C@H](CCC(N)=O)NC(=O)[C@H](N)Cc1ccccc1)C(C)C)C(=O)N1CSC[C@H]1C(N)=O [LW02015] (HELM PEPTIDE1{[dF].Q.[O=C([C@H](Cc1csc2ccccc12)N[*:1])[*:2]].A.V.G.H.L.[O=C([C@@H]1CSCN1[*:1])[*:2]].[am]}$$$$V2.0)	–
202	–	–	–	–	–	–	–	–	–	–	–	–	–	–	–	–	–	CC(C)C[C@H](NC(=O)[C@H](Cc1c[nH]cn1)NC(=O)CNC(=O)[C@@H](NC(=O)[C@H](C)NC(=O)[C@H](Cc1c[nH]c2ccccc12)NC(=O)[C@H](CCC(N)=O)NC(=O)[C@H](N)Cc1ccccc1)C1CC1)C(=O)N1CSC[C@H]1C(N)=O [LW02016]	–
–	16.6	0.1	1.64	0.69	0.12	0.03	0.09	0.23	3.26	1.27	0.41	0.59	0.14	2.11	0.29	0.94	0.16	CC(C)C[C@H](NC(=O)[C@H](Cc1cnc[nH]1)N(C)C(=O)CNC(=O)[C@@H](NC(=O)[C@H](C)NC(=O)[C@H](Cc1c[nH]c2ccccc12)NC(=O)[C@H](CCC(N)=O)NC(=O)[C@@H](Cc1ccccc1)NC(=O)CN1CCC(NC(=O)CN2CCN(CC(=O)O)CCN(CC(=O)O)CCN(CC(=O)O)CC2)CC1)C(C)(C)C)C(=O)N1CSC[C@H]1C(N)=O [^68Ga-LW01110, metal not drawn]	tissue uptake at 1 h (in vivo; Biodistribution Pancreas Mean): 8.99 %ID/g
–	11.4	0.33	2.07	6.88	0.47	0.15	0.32	1.62	6.36	1.07	2.88	4.59	0.52	1.7	0.88	0.98	1.28	CC(C)C[C@H](NC(=O)[C@H](Cc1cnc[nH]1)N(C)C(=O)CNC(=O)[C@@H](NC(=O)[C@H](C)NC(=O)[C@H](Cc1c[nH]c2ccccc12)NC(=O)[C@H](Cc1c[nH]cn1)NC(=O)[C@@H](Cc1ccccc1)NC(=O)CN1CCC(NC(=O)CN2CCN(CC(=O)O)CCN(CC(=O)O)CCN(CC(=O)O)CC2)CC1)C(C)(C)C)C(=O)N1CSC[C@H]1C(N)=O [^68Ga-LW01142, metal not drawn] ({DOTA}-[X1][dF]HWA[Tle]G[NMeH]L[Thz]-NH2)	tissue uptake at 1 h (in vivo; Biodistribution Pancreas Mean): 4.4 %ID/g
–	11.2	0.15	1.37	1.14	0.13	0.03	0.07	0.34	2.98	1.41	4.33	1.19	0.2	2.46	0.6	1.3	0.24	CC(C)C[C@@H](CN1CSC[C@H]1C(N)=O)NC(=O)[C@H](Cc1c[nH]cn1)NC(=O)CNC(=O)[C@@H](NC(=O)[C@H](C)NC(=O)[C@H](Cc1c[nH]c2ccccc12)NC(=O)[C@H](CCC(N)=O)NC(=O)[C@@H](Cc1ccccc1)NC(=O)CN1CCC(NC(=O)CN2CCN(CC(=O)O)CCN(CC(=O)O)CCN(CC(=O)O)CC2)CC1)C(C)(C)C [^68Ga-LW01158, metal not drawn] ({DOTA}-[X1][dF]QWA[Tle]GH-{Leuψ(CH2N)ThzNH2})	tissue uptake at 1 h ([1]; pancreas, Biodistribution Pancreas Mean): 12 %ID/g
